Here are results for 84 molecules from ChEMBL document CHEMBL1157539, “Thousands of chemical starting points for antimalarial lead identification” (Nature, 2010).

The assay has as its system Plasmodium falciparum. The assay is described as follows: GSK_TCMDC: Inhibition of Plasmodium falciparum 3D7 in whole erythrocytes, using parasite LDH activity as an index of growth. Conditions: Plasmodium falciparum, 3D7. Type of assay: functional, organism-based.

In turn, `O=c1cc(NCCCCNCc2cccc(Br)c2)[nH]c2ccccc12` gave an XC50 of 729 nM.

With `CCNc1cc(C(=O)N[C@@H](Cc2ccccc2)[C@H](O)CNCc2cccc(OC)c2C)cc(N2CCCCS2(=O)=O)c1`, the XC50 amounted to 518 nM.

`O=C(CCc1c[nH]cn1)Nc1cccc(-c2ccc(-c3nc4cc(F)ccc4[nH]3)s2)c1` displayed an XC50 of 557 nM.

The molecule `COc1ccc2nccc([C@@H](O)CN3CCC(NCc4cn5cc(F)ccc5n4)CC3)c2c1` displayed an XC50 of 784 nM.

As for `c1cc(CNCCc2ccncc2)cc(-c2csc(-c3nc4ccccc4[nH]3)c2)c1`, the XC50 is 258 nM.

The molecule `CN(CCS(C)(=O)=O)Cc1ccc(-c2ccc3ncnc(Nc4ccc(OCc5cccc(F)c5)c(Cl)c4)c3c2)o1` had an XC50 of 681 nM.

For `O=C(Cc1c[nH]cn1)Nc1cccc(-c2cccc(-c3nc4ccccc4[nH]3)c2)c1`, the XC50 was determined as 1020 nM.

With `COc1ccc(-c2cccc(NC(=O)c3cccc(C#N)c3)c2)cc1CN(C)CCO`, the XC50 is 823 nM.

In turn, `O=C(Nc1ccc(-c2nc3ccccc3[nH]2)cc1)c1cccc([N+](=O)[O-])c1` showed an XC50 of 220 nM.

In the case of `Cc1ccc2oc3cc(-c4nnn[nH]4)ccc3c(=O)c2c1`, the XC50 was 89.4 nM.

With `O=C(/C=C/c1ccc(Cl)cc1)NCCCCCN1CCC(C(=O)Nc2ccc(Cl)c(Cl)c2)CC1`, the XC50 was found to be 766 nM.

`O=C(Oc1ccc(Cl)cc1C(=O)Nc1ccc([N+](=O)[O-])cc1Cl)c1ccccc1` registered an XC50 of 912 nM.

In turn, `Cc1cccc2nc(-c3ccc(-c4cccc(CNCc5ccc(CN)cc5)c4)s3)[nH]c12` yielded an XC50 of 606 nM.

As for `CCC(CC)(Cc1ccccc1)NC(=O)[C@H](Cc1ccc(OC)c(OC)c1)Nc1ccc(C#N)c2ccccc12`, the XC50 was determined as 866 nM.

`Cc1cc(=O)[nH]c(-n2nc(C)cc2NC(=O)CC(c2ccccc2)c2ccccc2)n1` showed an XC50 of 1100 nM.

On to `CC(=O)Nc1ccc(OCCCCN(Cc2ccccc2C(F)(F)F)c2ccc(C#N)c(C(F)(F)F)c2)c(Cl)c1`, for which the XC50 stood at 981 nM.

The molecule `O=C(NCc1cccc(F)c1)Nc1cccc(-c2ccc(-c3nc4cc(C(F)(F)F)ccc4[nH]3)cc2)c1` gave an XC50 of 766 nM.

As to `CN(CCCN(C)c1cc(NC(=O)c2ccc(F)cc2)ccn1)Cc1cccc(O)c1`, the XC50 was found to be 1210 nM.

As to `O=C(Nc1cccc(-c2ccc(-c3nc4ccccc4[nH]3)s2)c1)c1ccncc1`, the XC50 was 778 nM.

`Fc1cc(CN2CCCC2)ccc1OCCCN1CCN(c2cccc(Cl)c2Cl)CC1` yielded an XC50 of 1040 nM.

The molecule `Oc1ccc(CN2CCC(N3CCN(CCc4ccccc4)CC3)C(O)C2)cc1Cl` (centres undefined) yielded an XC50 of 865 nM.

For the molecule `CCCC(N)C(=O)NC1CCN(c2c(F)c(N)c3c(=O)c(C(=O)O)cn4c3c2Oc2ccccc2-4)C1` (centres undefined), the XC50 turned out to be 359 nM.

The molecule `N#Cc1cccc(-c2nc(NCc3cccc(C(F)(F)F)c3)nn2-c2cccc(C(F)(F)F)c2)c1` displayed an XC50 of 592 nM.

Turning to `Cc1cc(NC(=O)NCCN2CCC(NC(=O)c3cccc(Br)c3)C2)c2ccccc2n1` (centres undefined), the XC50 worked out at 553 nM.

Turning to `CC(=O)Nc1ccc(C(=O)Nc2ccc(-c3cccc(-c4nc5cccc(C)c5[nH]4)c3)cc2)cn1`, the XC50 came out at 265 nM.

Molecule `COc1c(C2CCN(CCCCNC(=O)c3ccc(-c4ccc(C#N)cc4)cc3)CC2)cc(Cl)c2c1CCCC2` came in with an XC50 of 776 nM.

Take `Nc1ccc(Nc2ccnc3ccc(C(F)(F)F)cc23)cc1O`: the XC50 worked out at 716 nM.

Turning to `CC(C)n1c(C2CCN(CC3CCN(C(=O)/C=C/c4ccc(Cl)c(Cl)c4)CC3)CC2)nc2ccccc21`, the XC50 came to 1030 nM.

For `COc1cc(OC)c2c(c1Cl)O[C@]1(C2=O)C(=O)C(Cc2ccccc2)(Cc2ccccc2)C(=O)C[C@H]1C`, the XC50 was 974 nM.

The molecule `CN1CCN(Cc2cc3cc(NC(=O)/C=C/c4ccc(Cl)cc4)ccc3s2)CC1` yielded an XC50 of 767 nM.

Turning to `CCc1ccc(C2CCN(CCCCNC(=O)c3ccc(-c4ccc(Cl)cc4)cc3)CC2)c(O)c1`, the XC50 came out at 891 nM.

The molecule `O=C(C=Cc1ccc(Cl)c(Cl)c1)NCCCCCN1CCCC(CCCNC(=O)C2CC2c2ccccc2)C1` (centres undefined) displayed an XC50 of 1130 nM.

`CCc1cn2c3c(cc(C(=O)N[C@@H](Cc4ccccc4)[C@H](O)CNC(C)C)cc13)N(C)S(=O)(=O)C2` showed an XC50 of 317 nM.

Take `Cc1n[nH]c2ccc(-c3cc(OC[C@@H](N)Cc4ccccc4)cnc3-c3cc4ccccc4s3)cc12`: the XC50 worked out at 810 nM.

In turn, `Clc1ccc(-c2cc(-c3csc(NCCN4CCCCC4)n3)on2)cc1` yielded an XC50 of 989 nM.

For the molecule `Nc1nc(O)c2cc(CN(C=O)c3ccc(C(=O)N[C@@H](CCC(=O)O)C(=O)O)cc3)ccc2n1`, the XC50 stood at 179 nM.

In the case of `CC(C)(C)c1ccc(CN2CCC(CNC(=O)c3cc(-c4ccccc4)nc4ccccc34)CC2)cc1`, the XC50 was found to be 1020 nM.

In the case of `CCN1CCN(c2cc(C)c3cc(NC(=O)c4cncc(Br)c4)ccc3n2)CC1`, the XC50 worked out at 656 nM.

For the molecule `Cc1ccc(O)c(-c2cc(C(=O)Nc3ccc(S(=O)(=O)N4CCCCC4)cc3)[nH]n2)c1`, the XC50 turned out to be 805 nM.

`O=C(N/C(=C/c1cccc([N+](=O)[O-])c1)c1nc2ccccc2[nH]1)c1cccc(Br)c1` displayed an XC50 of 616 nM.

Turning to `Cn1c(N)c(N=O)c(=O)[nH]c1=O`, the XC50 amounted to 176 nM.

Consider `CC(C)n1ncc2c(C(=O)N3CCCC4CCCCC43)cc(C3CC3)nc21` (centres undefined), for which the XC50 turned out to be 676 nM.

As to `Cc1nnc2c(N(C(=O)NCCc3ccccc3)C(=O)NCCc3ccccc3)cc3cc(Cl)ccc3n12`, the XC50 was found to be 954 nM.

Take `Cc1cc(-c2ccc3c(c2)CCN(CCC2CCC(NC(=O)/C=C/c4cccc(F)c4)CC2)CC3)on1` (centres undefined): the XC50 worked out at 746 nM.

With `O=S(=O)(c1ccc2cc[nH]c2c1)N1CCC[C@@H]1CCN1CCC(c2c[nH]c3cnccc23)CC1`, the XC50 was 1020 nM.

In turn, `O=C(/C=C/c1ccc(O)cc1)NC1CCC(CN2CCC(c3c[nH]c4ccccc34)CC2)CC1` (centres undefined) had an XC50 of 744 nM.

Regarding `CCOc1ccc2[nH]c(C)cc(=NN=Cc3ccncc3)c2c1`, the XC50 is 991 nM.

The molecule `O=C(Nc1cc(F)cc(F)c1)NC1CCN(CCCCCNC(=O)C2CC2c2ccc(Cl)c(Cl)c2)CC1` (centres undefined) returned an XC50 of 750 nM.

As for `Cc1nc(-c2ccc(-c3ccc(C(=O)Nc4ccc(-n5ccnc5)c(N5CCN(C)CC5)c4)cc3)c(C)c2)no1`, the XC50 was determined as 834 nM.

For `COc1ccc2nccc(N3C[C@H]4C[C@@H]3CN4CCNCc3ccc4c(n3)NC(=O)CS4)c2n1`, the XC50 worked out at 973 nM.

The molecule `CC(Oc1cccc(Cl)c1)C(=O)N1CCc2ccccc21` (centres undefined) yielded an XC50 of 512 nM.

For `COc1ccc(S(=O)(=O)NC2CCN(CCCOc3ccnc4cc(Cl)ccc34)C2)cc1OC` (centres undefined), the XC50 is 1050 nM.

The molecule `COc1ccc(C(=O)CCc2ccc(O)cc2)cc1` had an XC50 of 483 nM.

In the case of `CCC(Cc1ccccc1)c1cc(O)c(Cc2ccc(-c3ccccc3)cc2)c(=O)o1` (centres undefined), the XC50 was 971 nM.

Regarding `CC(C)Cn1cc(C2CCN(CCN3CCC(CNC(=O)c4ccc(-c5ccc(C#N)cc5)cc4)CC3)CC2)c2ccccc21`, the XC50 came out at 786 nM.

As for `Cc1cccc(NC(=O)Nc2ccc(I)c(OCCN(C)C)c2)c1C`, the XC50 worked out at 725 nM.

For `CC(=O)N(Cc1ccccc1-c1cccc(CNCCc2ccccc2)c1)C1CCN(Cc2ccccc2)CC1`, the XC50 is 1100 nM.

As to `CCN1CCN(c2cc(C)c3cc(NC(=O)c4cccc(C(F)(F)F)c4)ccc3n2)CC1`, the XC50 turned out to be 568 nM.

In turn, `COc1ccccc1C1CC(c2ccccc2)=NN1C(=O)c1ccco1` (centres undefined) gave an XC50 of 397 nM.

Consider `CN(C(=O)Nc1ccc(C(F)(F)F)cc1)C1CCN(CCCCCNC(=O)/C=C/c2ccc(Cl)c(Cl)c2)CC1`, for which the XC50 was found to be 330 nM.

With `Cc1ccc(C(=O)c2oc3ccc4c(C)cc(=O)oc4c3c2C)cc1`, the XC50 amounted to 1030 nM.

The molecule `CCNc1cc(C(=O)N[C@@H](Cc2ccccc2)[C@H](O)CNC2(C(C)C)CCC2)cc(N2CCCCS2(=O)=O)c1` had an XC50 of 685 nM.

`CCc1c(CCNCCc2cccc(CCNCCc3ccc(OC)c(OC)c3CC)c2)ccc(OC)c1OC` returned an XC50 of 361 nM.

Turning to `COc1ccc(NC(=O)c2ccc(-c3nc(-c4cccc(C(F)(F)F)c4)cs3)cc2)cc1N1CCN(C)CC1`, the XC50 was 818 nM.

The molecule `Nc1ccnc2ccc(OCCCCCCc3ccccc3)cc12` came in with an XC50 of 524 nM.

Turning to `COc1cc(NCC(CN)Cc2ccc3c(c2)OCO3)nc2ccccc12` (centres undefined), the XC50 is 820 nM.

Regarding `CCOC(=O)C(Oc1ccc2ccccc2c1)C(=O)OCC`, the XC50 came to 756 nM.

For `CNC(=O)/C=C/c1cc(NC(=O)Nc2cc(C)nc3c(F)cccc23)ccc1OC`, the XC50 turned out to be 908 nM.

`O=C(NCCN1CCCCC1)c1cccc(Nc2nccc(Nc3ccc(Oc4ccccc4)cc3)n2)c1` had an XC50 of 273 nM.

With `c1ccc(C(c2ccccc2)N2CCC(NCc3ccc(OCCCN4CCCCC4)cc3)CC2)cc1`, the XC50 stood at 557 nM.

Consider `FC(F)(F)c1ccc(NC(=S)N2CCC(CN3CCC(c4c[nH]c5ccccc45)CC3)CC2)cc1`, for which the XC50 came to 663 nM.

Take `CC(C)(C)CCN1CCC(CNC(=O)c2cc(-c3cccc(C(F)(F)F)c3)cs2)C1` (centres undefined): the XC50 was 887 nM.

For `O=C(NCc1cccc(C(F)(F)F)c1)c1ccc(CNC(=O)c2ccc(O)c(-c3ccc(Cl)c(Cl)c3)c2)cc1`, the XC50 was 843 nM.

`CC(C)CCN1CCC(Oc2ccc(NC(=O)c3ccccc3)cc2Cl)CC1` displayed an XC50 of 1300 nM.

In the case of `Nc1c(Cl)cc(C(O)CNCCCCCCOCCc2ccc(O)cc2)cc1Cl` (centres undefined), the XC50 turned out to be 725 nM.

With `Cc1ccc(CNC(=O)c2cc3c(=O)n4cccc(C)c4nc3n(CCN3CCOCC3)c2=N)cc1`, the XC50 worked out at 854 nM.

`CN1CCC(NCc2cccc(-c3cnc(NCc4ccccc4)nc3)c2)CC1` came in with an XC50 of 965 nM.

`CCOC(=O)c1c(CN2CCN(C)CC2)n(Cc2ccccc2)c2cc(Br)c(O)cc12` came in with an XC50 of 595 nM.

As to `COc1ccc2nc(C)cc(NCc3ccc4ccccc4c3)c2c1`, the XC50 was 468 nM.

In the case of `O=C(Nc1ccc(Cn2ncc(N3CCCNCC3)c(Cl)c2=O)cc1)Nc1ccc(F)cc1[N+](=O)[O-]`, the XC50 worked out at 1100 nM.

Molecule `COc1ccccc1CCNc1nc(C)cc(N[C@@H](Cc2ccccc2)C(=O)NCc2cccs2)n1` had an XC50 of 634 nM.

The molecule `CCc1ccc(CC(C)NCC(O)c2ccccc2)cc1` (centres undefined) had an XC50 of 887 nM.

Molecule `C#CCOc1ccc2ccccc2c1CNCCCCCCNCc1c(OCC#C)ccc2ccccc12` showed an XC50 of 780 nM.

In the case of `O=C(NCCN1Cc2ccccc2C1=O)c1ccc(Oc2ccc(C(=O)NCCN3Cc4ccccc4C3=O)cc2)cc1`, the XC50 was 361 nM.
